Data reported in US10626135B2, “Crystal forms of sodium-glucose co-transporter inhibitor, processes for preparation and use thereof” (CRYSTAL PHARMACEUTICAL (SUZHOU) CO., LTD., priority 2016, dated 2020).
Converted amounts (≈) assume the structure as drawn. “Also recorded” adds a separate entry of the source.

What was measured:
Format in all cases: physicochemical
[1] = Stability study: mixture of forms stirred in solvent systems with different water activity, residual solid by XRPD; settings: high water activity (high humidity, ≥50% RH)
Text: The mixture of existing crystalline Form 2 disclosed in CN102112483A, Form I and Form II was stirred in several solvent systems with different water activity (aw).
It should be noted that the solvent systems for different water activity (aw) include but not limit to H2O and IPA. The same conclusion could be drawn with this experiment in other solvent systems suitable for the preparation of different water activity (aw).

[2] = Hygroscopicity assessment by dynamic vapor sorption (DVS); settings: 25° C., cycle 20%-95%-0%-95% RH
Description: Dynamic Vapor Sorption (DVS) is measured via a SMS (Surface Measurement Systems Ltd.) intrinsic DVS. Typical Parameters for DVS test are as follows: Temperature: 25° C. Gas and flow rate: N2, 200 mL/min dm/dt: 0.002%/min Relative Humidity (RH) range: 20% RH-95% RH-0% RH-95% RH Dynamic vapor sorption (DVS) was applied to test hygroscopicity of crystalline Form I with 13.8 mg of sample Form I at 25° C. The weight gains at each relative humidity were recorded in a cycle of 20%-95%-0%-95% RH. […] Dynamic vapor sorption (DVS) was applied to test hygroscopicity of Form VII with 11.5 mg of sample Form VII at 25° C. The weight gains at each relative humidity were recorded in a cycle of 0%-95%-0% RH.

[3] = Dynamic solubility in SGF (simulated gastric fluids), HPLC
Description: The HPLC method parameters for solubility test in the present disclosure are as follows:
Saturated solutions of Form I, Form II, Form III, Form VII and the existing crystalline Form 2 in SGF (Simulated gastric fluids) were prepared. Saturated solutions of Form II, Form III, Form VII, Form VIII and the existing crystalline Form 2 in FaSSIF (Fasted state simulated intestinal fluids, pH=6.5) were prepared. After equilibrated for 1 hour, concentrations of the saturated solutions were measured by High Performance Liquid Chromatography (HPLC).

[4] = Stability study: storage at 25° C./60% RH and 40° C./75% RH, XRPD; settings: for Solid Form after storage: 3 months
Description: Form I, Form II, Form III and Form VI were stored under different conditions of 25° C./60% RH and 40° C./75% RH for 3 months. XRPD was applied to detect the crystalline forms. The XRPD overlay of Form I, Form II, Form III and Form VI before and after stored under above two conditions were shown in FIG. 44, FIG. 45, FIG. 46 and FIG. 47, respectively.

[5] = Morphology assessment by polarized light microscopy
Description: The existing crystalline Form 2 and Form I in the present disclosure were tested by polarized light microscopy. The PLM results of the Form 2 and Form I were shown in FIG. 48 and FIG. 49, respectively.

[6] = Particle size distribution assessment (laser particle size analyzer)
Text: The result of particle size distribution (PSD) in the present disclosure was acquired by laser particle size analyzer with S3500 model from Microtrac Company. The Microtrac S3500 is equipped with a SDC (Sample Delivery Controller) sampling system. This experiment uses a wet method and the dispersion medium is Isopar G. The method and parameters of the laser particle size analyzer are as follows: [table] Certain amount of Form I, Form V, Form VIII and existing crystalline Form 2 were taken for particle size distribution test, and the results were shown in Table 29.

[7] = Mechanical stability assessment: manual grinding, XRPD; settings: ground manually for 5 minutes in mortar
Description: Solid sample of Form I, Form VI and the existing crystalline Form 2 were ground manually for 5 minutes in mortar. XRPD was applied to detect the crystalline form.

Structure (SMILES): CCOc1ccc(Cc2cc([C@@H]3O[C@H](SC)[C@@H](O)[C@H](O)[C@H]3O)ccc2Cl)cc1 [Form I, (2S,3R,4R,5S,6R)-2-(4-chloro-3-(4-ethoxybenzyl)phenyl)-6-(methylthio)tetrahydro-2H-pyran-3,4,5-triol]
- Stability in high water activity environment [1]: more stable than Form 2
- Weight gain under 80% RH [2]: 3.55%
- Form change before and after DVS ([2]; XRPD): substantially unchanged; also recorded: No form change
- Solubility 1 hour ([3]; Media: SGF, equilibrated for 1 hour): 100 µg/mL (≈ 235 µM)
- Solubility relative to existing crystalline Form 2 ([3]; SGF, 1 hour): 1.7 times
- Stability on storage ([4]; 25° C./60% RH and 40° C./75% RH for 3 months): good stability
- Solid Form after storage ([4]; 25° C./60% RH): Form I (the middle
- Solid Form after storage ([4]; 40° C./75% RH): Form I (the bottom
- Crystal shape (PLM) [5]: rod-like shape
- Particle size distribution (description) [6]: narrow and normal
- D10 ([6]; wet method, Isopar G): 3.34 μm
- D50 ([6]; wet method, Isopar G): 8.97 μm
- D90 ([6]; wet method, Isopar G): 31.63 μm
- MV (average particle size based on volume) ([6]; wet method, Isopar G): 14.48 μm
- Crystallinity [7]: Decreased (Slightly
- Final form [7]: no crystalline form change; also recorded: Form I
- Mechanical stability [7]: better mechanical stability
